Common to all, as to format: biochemical
For test [1], the target named is METTL3/METTL14 (Homo sapiens, UniProt Q86U44). Kind of test: METTL3-14 standard enzyme assay (3H-SAM flashplate scintillation). The following applies: METTL3/METTL14 2.5 nM, RNA 100 nM, 3H-SAM 100 nM, 30 min. On the procedure:
METTL3-14 Standard Enzyme Assay
(§1) Assays were performed in a 25 μl-volume in 384-well V-bottom polypropylene microplates (Greiner Bio-One, cat. No. 781280) at ambient temperature. Optimized 1× assay buffer was 20 mM HEPES pH 7.5, 50 mM KCl, 250 μM MgCl2, 1 mM DTT, 0.01% Tween, 0.01% BSG, 0.004 U/μl RNAseOUT (cat. No. 10777019, ThermoFisher Scientific, Waltham, Mass.). For compound screening METTL3/METTL14 (final concentration, f.c.=2.5 nM) was added using a Multidrop Combi (ThermoFisher Scientific, Waltham, Mass.) and preincubated for 5 min. Reactions were started by adding 3′ biotinylated RNA (UCUGGACUAAA-biotin) (f.c.=100 nM) and 3H-SAM (f.c.=100 nM) substrates. Reactions proceeded for 30 minutes and were quenched with excess non-radioactive SAM (f.c.=15 μM). The reactions were then transferred to streptavidin-coated flashplates and incubated for 2 hours at 25° C. Following two washing cycles with 0.1% Tween-20, the plates were sealed and read on a TopCount (PerkinElmer, Waltham, Mass.) plate-based scintillation counter. For determination of kinetic parameters, reaction times were optimized so that measurements were taken during the initial velocity phase of the reaction.

The target of test [2] is PRMT5-MEP50 (Homo sapiens, UniProt O14744). The test is described as follows: PRMT5 assay (3H-SAM flashplate scintillation). The following applies: PRMT5-MEP50 2.5 nM, histone H4 peptide 100 nM, 3H-SAM 250 nM, 60 min. On the procedure:
Assays were performed in a 25 μl-volume in 384-well V-bottom polypropylene microplates (Greiner Bio-One, cat. No. 781280) at ambient temperature. Optimized 1× assay buffer was 20 mM Tris-HCl pH 8.0, 1 mM DTT, […]. For compound screening PRMT5-MEP50 (final concentration, f.c.=2.5 nM) was added using a Multidrop Combi (ThermoFisher Scientific, Waltham, Mass.) and preincubated for 5 min. Reactions were started by adding 3′ biotinylated histone H4 peptide acetylated on serine 1 (Ac-[…]-Biotin) (f.c.=100 nM) and 3H-SAM (f.c.=250 nM) substrates. Reactions proceeded for 60 minutes and were quenched with excess non-radioactive SAM (f.c.=15 μM). The reactions were then transferred to streptavidin-coated flashplates and incubated for 2 hours at 25° C. Following two washing cycles with 0.1% Tween-20, the plates were sealed and read on a TopCount (PerkinElmer, Waltham, Mass.) plate-based scintillation counter. For determination of kinetic parameters, reaction times were optimized so that measurements were taken during the initial velocity phase of the reaction.

In test [3] the target is METTL1/WDR4 (Homo sapiens, UniProt Q9UBP6). Kind of test: METTL1 assay (3H-SAM flashplate scintillation). The procedure:
as §1, with “METTL1/WDR4” for “METTL3/METTL14”, “f.c.=6.25” for “f.c.=2.5”, “([…]-biotin) (f.c.=25” for “(UCUGGACUAAA-biotin) (f.c.=100”, “(f.c.=60” for “(f.c.=100”, “20” for “30”

Test [4] has as its target T1, METTL16 (Homo sapiens, UniProt Q86W50).
T1 sequence (Q86W50 1-562): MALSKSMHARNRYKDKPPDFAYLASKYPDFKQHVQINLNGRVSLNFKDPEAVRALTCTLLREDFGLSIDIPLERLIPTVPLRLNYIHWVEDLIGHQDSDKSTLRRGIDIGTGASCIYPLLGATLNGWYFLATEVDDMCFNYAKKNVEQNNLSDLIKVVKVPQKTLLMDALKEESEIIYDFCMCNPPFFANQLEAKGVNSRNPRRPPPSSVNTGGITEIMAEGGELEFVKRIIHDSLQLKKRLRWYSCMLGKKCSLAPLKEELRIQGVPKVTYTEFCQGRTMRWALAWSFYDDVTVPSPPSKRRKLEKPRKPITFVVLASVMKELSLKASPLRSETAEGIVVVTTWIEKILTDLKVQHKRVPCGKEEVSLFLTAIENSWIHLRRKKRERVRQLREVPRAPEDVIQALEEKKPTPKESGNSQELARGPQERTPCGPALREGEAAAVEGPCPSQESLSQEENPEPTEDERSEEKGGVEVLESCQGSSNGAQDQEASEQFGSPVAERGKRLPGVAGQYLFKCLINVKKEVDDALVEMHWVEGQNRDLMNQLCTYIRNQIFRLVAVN
Kind of test: METTL16 assay (3H-SAM flashplate scintillation). As to conditions: METTL16 100 nM, RNA 50 nM, 3H-SAM 200 nM, SAM 800 nM, 20 min. On the procedure: Assays were performed in a 25 μl-volume in 384-well V-bottom polypropylene microplates (Greiner Bio-One, cat. No. 781280) at ambient temperature. Optimized 1× assay buffer was 20 mM HEPES pH 7.5, 50 mM KCl, 1 mM DTT, 0.01% Tween, 0.01% BSG, 0.004 U/μl RNAseOUT (cat. No. 10777019, ThermoFisher Scientific, Waltham, Mass.). For compound screening METTL16 (final concentration, f.c.=100 nM) was added using a Multidrop Combi (ThermoFisher Scientific, Waltham, Mass.) and preincubated for 5 min. Reactions were started by adding 3′ biotinylated RNA ([…]-biotin) (f.c.=50 nM), 3H-SAM (f.c.=200 nM) and non-radiolabeled SAM (f.c.=800 nM) substrates. Reactions proceeded for 20 minutes and were quenched with excess non-radioactive SAM (f.c.=100 μM). The reactions were then transferred to streptavidin-coated flashplates and incubated for 2 hours at 25° C. Following two washing cycles with 0.1% Tween-20, the plates were sealed and read on a TopCount (PerkinElmer, Waltham, Mass.) plate-based scintillation counter. For determination of kinetic parameters, reaction times were optimized so that measurements were taken during the initial velocity phase of the reaction.

Where [5] appears, read: METTL1/WDR4 6.25 nM, RNA 25 nM, 3H-SAM 60 nM, 20 min, read-out: METTL1 IC50.

Where a name gives a salt, the structure may show the parent alone. Read-outs that look alike come from different tables or passages of the source.

Chain of METTL1/WDR4 (Q9UBP6 whole entry, species assumed): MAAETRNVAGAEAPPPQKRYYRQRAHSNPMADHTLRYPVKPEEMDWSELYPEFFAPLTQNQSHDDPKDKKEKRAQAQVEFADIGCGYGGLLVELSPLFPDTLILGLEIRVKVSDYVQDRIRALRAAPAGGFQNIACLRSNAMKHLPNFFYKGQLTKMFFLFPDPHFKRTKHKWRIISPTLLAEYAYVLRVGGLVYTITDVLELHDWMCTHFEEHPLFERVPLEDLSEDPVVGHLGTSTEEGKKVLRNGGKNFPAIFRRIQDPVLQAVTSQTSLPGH
Chain of METTL1/WDR4 (P57081 whole entry partner, species assumed): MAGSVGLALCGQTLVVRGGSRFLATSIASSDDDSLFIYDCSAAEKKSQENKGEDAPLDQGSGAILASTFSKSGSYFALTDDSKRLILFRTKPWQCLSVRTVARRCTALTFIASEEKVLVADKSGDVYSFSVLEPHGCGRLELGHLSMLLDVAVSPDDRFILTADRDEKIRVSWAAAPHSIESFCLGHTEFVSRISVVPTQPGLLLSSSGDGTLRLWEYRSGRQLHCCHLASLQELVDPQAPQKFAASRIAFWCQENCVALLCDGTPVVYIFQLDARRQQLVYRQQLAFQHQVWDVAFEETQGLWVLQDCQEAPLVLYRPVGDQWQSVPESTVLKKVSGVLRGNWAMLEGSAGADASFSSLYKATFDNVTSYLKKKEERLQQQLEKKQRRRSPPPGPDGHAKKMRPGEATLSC
Chain of METTL3/METTL14 (Q86U44 whole entry, species assumed): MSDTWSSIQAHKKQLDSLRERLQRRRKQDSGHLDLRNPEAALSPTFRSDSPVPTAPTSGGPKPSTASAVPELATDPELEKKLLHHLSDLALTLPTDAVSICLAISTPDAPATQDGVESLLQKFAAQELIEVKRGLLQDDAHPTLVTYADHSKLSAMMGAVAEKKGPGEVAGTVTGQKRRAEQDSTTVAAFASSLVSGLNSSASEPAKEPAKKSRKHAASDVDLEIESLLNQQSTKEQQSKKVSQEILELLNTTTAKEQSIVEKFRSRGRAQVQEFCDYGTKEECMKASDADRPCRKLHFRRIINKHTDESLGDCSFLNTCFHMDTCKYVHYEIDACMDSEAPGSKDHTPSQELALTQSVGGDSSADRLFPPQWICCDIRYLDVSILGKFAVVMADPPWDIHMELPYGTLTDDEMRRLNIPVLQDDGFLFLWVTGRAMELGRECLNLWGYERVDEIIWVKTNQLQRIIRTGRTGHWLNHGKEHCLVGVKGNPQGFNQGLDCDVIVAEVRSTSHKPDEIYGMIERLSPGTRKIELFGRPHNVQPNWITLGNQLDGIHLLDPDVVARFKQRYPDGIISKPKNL
Chain of METTL3/METTL14 (Q9HCE5 whole entry partner, species assumed): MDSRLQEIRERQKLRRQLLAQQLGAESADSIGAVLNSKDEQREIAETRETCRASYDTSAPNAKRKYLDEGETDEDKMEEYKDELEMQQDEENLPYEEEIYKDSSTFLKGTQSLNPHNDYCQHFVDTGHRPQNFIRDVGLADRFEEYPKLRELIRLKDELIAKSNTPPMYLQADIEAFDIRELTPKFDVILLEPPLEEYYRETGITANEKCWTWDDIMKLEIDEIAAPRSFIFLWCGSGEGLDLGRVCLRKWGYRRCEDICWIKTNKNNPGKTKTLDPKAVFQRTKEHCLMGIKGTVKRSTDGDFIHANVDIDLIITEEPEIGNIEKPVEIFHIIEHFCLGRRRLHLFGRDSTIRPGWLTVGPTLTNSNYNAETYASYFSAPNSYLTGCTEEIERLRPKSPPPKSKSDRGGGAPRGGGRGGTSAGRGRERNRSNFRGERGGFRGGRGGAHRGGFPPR
Chain of PRMT5-MEP50 (O14744 whole entry): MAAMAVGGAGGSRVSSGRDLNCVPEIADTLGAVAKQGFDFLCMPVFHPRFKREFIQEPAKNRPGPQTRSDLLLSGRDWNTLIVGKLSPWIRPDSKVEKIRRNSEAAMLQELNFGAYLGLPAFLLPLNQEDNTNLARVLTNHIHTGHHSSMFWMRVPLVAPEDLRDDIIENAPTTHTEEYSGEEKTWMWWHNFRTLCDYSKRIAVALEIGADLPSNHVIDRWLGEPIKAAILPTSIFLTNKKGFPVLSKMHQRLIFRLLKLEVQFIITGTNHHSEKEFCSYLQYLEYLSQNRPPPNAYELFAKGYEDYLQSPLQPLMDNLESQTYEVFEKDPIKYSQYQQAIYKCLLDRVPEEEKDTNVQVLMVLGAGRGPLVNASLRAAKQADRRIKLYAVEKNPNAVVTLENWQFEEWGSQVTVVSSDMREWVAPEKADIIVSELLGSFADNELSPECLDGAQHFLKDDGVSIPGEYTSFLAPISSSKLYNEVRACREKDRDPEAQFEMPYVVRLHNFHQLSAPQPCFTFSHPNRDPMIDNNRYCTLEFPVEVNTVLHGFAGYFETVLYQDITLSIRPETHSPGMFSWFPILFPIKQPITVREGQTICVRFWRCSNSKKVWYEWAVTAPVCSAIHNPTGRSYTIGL
Chain of PRMT5-MEP50 (Q9BQA1 whole entry partner): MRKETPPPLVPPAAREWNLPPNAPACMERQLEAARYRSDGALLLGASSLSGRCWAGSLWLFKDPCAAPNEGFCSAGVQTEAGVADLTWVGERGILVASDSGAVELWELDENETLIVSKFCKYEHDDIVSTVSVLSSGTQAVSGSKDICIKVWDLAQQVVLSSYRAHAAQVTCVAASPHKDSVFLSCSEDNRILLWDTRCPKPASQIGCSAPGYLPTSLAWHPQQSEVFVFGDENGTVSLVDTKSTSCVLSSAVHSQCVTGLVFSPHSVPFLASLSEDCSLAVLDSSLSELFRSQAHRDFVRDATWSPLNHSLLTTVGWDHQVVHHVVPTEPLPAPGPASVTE

On to `CNc1ccc2ccc(COc3cncc(-n4ccc5c(N)ncnc54)c3)cc2n1` [Compound I-22, 7-{[(5-{4-amino-7H-pyrrolo[2,3-d]pyrimidin-7-yl}pyridin-3-yl)oxy]methyl}-N-methylquinolin-2-amine], for which the IC50 (usually the point on the concentration scale where inhibition reaches its midpoint) in test [1] is 0.01 to 0.1 µM; in test [2], greater than 1 µM; in test [3] (setting [5]) it was greater than 1 µM.

As for `Nc1ncnc2c1c(Cl)cn2-c1csc(COc2ccc3ccc(N4CCCC4)nc3c2)n1` [Compound I-23, 5-chloro-7-(2-(((2-(pyrrolidin-1-yl)quinolin-7-yl)oxy)methyl)thiazol-4-yl)-7H-pyrrolo[2,3-d]pyrimidin-4-amine hydrochloride], the IC50 in test [1], in test [2] and in test [3] was greater than 1 µM throughout.

Regarding `CNc1ccc2ccc(OCc3ncc(-n4cc(Cl)c5c(N)ncnc54)s3)cc2n1` [Compound I-24], the IC50 in test [1], in test [2] and in test [3] was greater than 1 µM each time.

On to `Nc1ncnc2c1ccn2-c1cncc(COc2ccc3ccc(N4CCCC4)nc3c2)c1` [Compound I-26], for which the results for the IC50 in test [1], in test [2] and in test [4] were 0.01 to 0.1 µM, greater than 1 µM and greater than 1 µM, respectively.

For the compound `CNc1ccc2ccc(OCc3cncc(-n4cc(CCN(C)C)c5c(N)ncnc54)c3)cc2n1` [Compound I-27], the IC50 in test [1] was 0.01 to 0.1 µM; in test [2], greater than 1 µM; in test [4], greater than 1 µM.

On to `C=CC(=O)Nc1nc(N)c2ccn(-c3cncc(COc4ccc5ccc(NC)nc5c4)c3)c2n1` [Compound I-31], for which the IC50 in test [1], in test [2] and in test [4] was greater than 1 µM in each case.

Take `CNc1ccc2ccc(OCc3nc(-n4cc(Cl)c5c(N)ncnc54)cs3)cc2n1` [Compound I-37]: the IC50 in test [1] was 0.01 to 0.1 µM; in test [2], greater than 1 µM; in test [3] (setting [5]), greater than 1 µM.

Regarding `Nc1ncnc2c1c(Cl)cn2-c1nnc(COc2ccc3ccc(N4CCCC4)nc3c2)s1` [Compound I-38, 5-chloro-7-(5-(((2-(pyrrolidin-1-yl)quinolin-7-yl)oxy)methyl)-1,3,4-thiadiazol-2-yl)-7H-pyrrolo[2,3-d]pyrimidin-4-amine trifluoroacetate], the IC50 in test [1], in test [2] and in test [3] was greater than 1 µM in each case.

In the case of `CC(C)Nc1ccc2ccc(OCc3cncc(-n4cc(Cl)c5c(N)ncnc54)c3)cc2n1` [Compound I-39], the figures for the IC50 in test [1], in test [2] and in test [4] were 0.01 to 0.1 µM, greater than 1 µM and greater than 1 µM, respectively.

In the case of `Nc1ncnc2c1c(Cl)cn2-c1cncc(COc2ccc3ccc(N4CCCC4)nc3c2)c1` [Compound I-40], the 50% inhibitory concentration (IC50) in test [1] was 0.01 to 0.1 µM; in test [2] it was greater than 1 µM; in test [4], greater than 1 µM.

With `C=CC(=O)N(CCC(=O)O)c1nc(N)c2ccn(-c3cncc(COc4ccc5ccc(NC)nc5c4)c3)c2n1` [Compound I-41], the IC50 in test [1], in test [2] and in test [4] was greater than 1 µM each time.

For the compound `CNc1ccc2ccc(OCc3cccc(-n4cc(Br)c5c(N)ncnc54)c3)cc2n1` [Compound I-43], the IC50 in test [1] is 0.01 to 0.1 µM; in test [2], greater than 1 µM; in test [4] it was greater than 1 µM.

Take `CNc1ccc2ccc(OCc3cncc(-n4ccc5c(C)ncnc54)c3)cc2n1` [Compound I-44]: the IC50 in test [1] is 0.01 to 0.1 µM; in test [2], greater than 1 µM; in test [4], greater than 1 µM.

On to `Nc1ncnc2c1ccn2-c1cncc(COc2ccc3c(=O)cc[nH]c3c2)c1` [Compound I-88], for which the IC50 in test [1], in test [2] and in test [3] (setting [5]) was greater than 1 µM in each case.

For `CCc1cc(NCCN(C)C)c2ccc(OCc3cncc(-n4ccc5c(N)ncnc54)n3)cc2n1` [Compound I-89], the IC50 in test [1] is less than 0.01 µM; in test [2], greater than 1 µM; in test [3] (setting [5]), greater than 1 µM.

On to `CC(C)c1nc(N)c2ccc(OCc3cncc(-n4ccc5c(N)ncnc54)c3)cc2n1` [Compound I-91], for which the figures for the IC50 in test [1], in test [2] and in test [3] (setting [5]) were 0.01 to 0.1 µM, greater than 1 µM and greater than 1 µM, respectively.

Regarding `CC(C)(C)c1cc(N)c2ccc(OCc3cncc(-n4ccc5c(N)ncnc54)c3)cc2n1` [Compound I-93], the IC50 is less than 0.01 µM in test [1], greater than 1 µM in test [2] and greater than 1 µM in test [3] (setting [5]).

For `Nc1ncnc2c1c(C1CCCC1)cn2-c1cncc(COc2ccc3ccc(N4CCC4)nc3c2)c1` [Compound I-94], the values for the IC50 in test [1], in test [2] and in test [3] (setting [5]) were less than 0.01 µM, greater than 1 µM and greater than 1 µM, respectively.

For the compound `CCCC(=O)c1cn(-c2cncc(COc3ccc4ccc(NC)nc4c3)c2)c2ncnc(N)c12` [Compound I-96], the IC50 is 0.01 to 0.1 µM in test [1], greater than 1 µM in test [2] and greater than 1 µM in test [3] (setting [5]).

Turning to `Cc1cc(NCCN(C)CCCc2ccccc2)c2ccc(OCc3cncc(-n4ccc5c(N)ncnc54)c3)cc2n1` [Compound I-98], the values for the IC50 in test [1], in test [2] and in test [3] (setting [5]) were 0.01 to 0.1 µM, greater than 1 µM and greater than 1 µM, respectively.

As to `CN(Cc1cncc(-n2cc(-c3ccn(C)n3)c3c(N)ncnc32)c1)CC1CC1` [Compound I-100], the IC50 in test [1], in test [2] and in test [3] (setting [5]) was greater than 1 µM throughout.

On to `Nc1ccc2ccc(OCc3cncc(-n4ccc5c(N)ncnc54)c3)cc2n1` [Compound I-240], for which the IC50 in test [1] is 0.01 to 0.1 µM; in test [2], greater than 1 µM; in test [3] (setting [5]), greater than 1 µM.

The record behind these values is patent US20220372040A1, “METTL3 MODULATORS” (Accent Therapeutics, Inc., priority 2020, published 2022).
